Literature values, collected in patent publication US10076117B2, “Pesticide formulation comprising a water soluble active ingredient and a penetration enhancer and use of the same” (ROTAM AGROCHEM INTERNATIONAL COMPANY LIMITED, priority 2014, dated 2018).

Conditions: water

## COP(=O)(NC(C)=O)SC (stereo not shown) [acephate]
  solubility: 650 g in 1 L of water
